Source: ChEMBL document CHEMBL1811861 (Bioorg Med Chem, 2011)

How the values were obtained:
[1] = tested on: Human immunodeficiency virus 1; assay: microbe, parasite or virus in culture; conditions: Human immunodeficiency virus 1, LAI, MT2
[2] = tested on: Human alphaherpesvirus 3; assay: microbe, parasite or virus in culture; conditions: Human alphaherpesvirus 3, strain Oka vaccine, HEL
[3] = tested on: Human alphaherpesvirus 3; assay: microbe, parasite or virus in culture; conditions: Human alphaherpesvirus 3, 07/1, HEL
[4] = cat, crfk, 72 h
[5] = tested on: Felid alphaherpesvirus 1; assay: microbe, parasite or virus in culture; conditions: Felid alphaherpesvirus 1, CRFK
[6] = tested on: Feline coronavirus; assay: microbe, parasite or virus in culture; conditions: Alphacoronavirus 1, CRFK
[7] = tested on: Human betaherpesvirus 5; assay: microbe, parasite or virus in culture; conditions: Human betaherpesvirus 5, AD169, HEL
[8] = tested on: Human betaherpesvirus 5; assay: microbe, parasite or virus in culture; conditions: Human betaherpesvirus 5, Davis, HEL
[9] = tested on: Respiratory syncytial virus; assay: microbe, parasite or virus in culture; conditions: human respiratory syncytial virus, HeLa
[10] = tested on: Coxsackievirus B4; assay: microbe, parasite or virus in culture; conditions: Enterovirus B, Vero
[11] = tested on: Human respirovirus 3; assay: microbe, parasite or virus in culture; conditions: Human respirovirus 3, Vero
[12] = tested on: Mammalian orthoreovirus 1; assay: microbe, parasite or virus in culture; conditions: Mammalian orthoreovirus 1, Vero
[13] = tested on: Sindbis virus; assay: microbe, parasite or virus in culture; conditions: Vero
[14] = tested on: Punta Toro virus; assay: microbe, parasite or virus in culture; conditions: Vero
[15] = tested on: Influenza A virus; assay: microbe, parasite or virus in culture; conditions: H3N2, MDCK
[16] = tested on: Human alphaherpesvirus 1; assay: microbe, parasite or virus in culture; conditions: Human alphaherpesvirus 1, KOS, HEL
[17] = tested on: Human alphaherpesvirus 2; assay: microbe, parasite or virus in culture; conditions: Human alphaherpesvirus 2, strain G, HEL
[18] = tested on: Human immunodeficiency virus 1; assay: microbe, parasite or virus in culture; conditions: Human immunodeficiency virus 1, 3B, CCRF-CEM, 96 h
[19] = tested on: Human immunodeficiency virus 2; assay: microbe, parasite or virus in culture; conditions: Human immunodeficiency virus 2, ISOLATE ROD, CCRF-CEM, 96 h
[20] = tested on: Influenza A virus; assay: microbe, parasite or virus in culture; conditions: H1N1, MDCK
[21] = tested on: Influenza B virus; assay: microbe, parasite or virus in culture; conditions: MDCK
[22] = tested on: HEL; conditions: human, 72 h
[23] = tested on: HeLa; conditions: human, 72 h
[24] = tested on: CCRF-CEM; conditions: human, 72 h
[25] = tested on: Human alphaherpesvirus 1; assay: microbe, parasite or virus in culture; conditions: Human alphaherpesvirus 1, KOS, HEL; remark: listed apart in the source
[26] = tested on: Vaccinia virus; assay: microbe, parasite or virus in culture; conditions: Orthopoxvirus vaccinia, HEL
[27] = tested on: Vesicular stomatitis virus; assay: microbe, parasite or virus in culture; conditions: HEL
[28] = tested on: Vesicular stomatitis virus; assay: microbe, parasite or virus in culture; conditions: HeLa
[29] = tested on: Coxsackievirus B4; assay: microbe, parasite or virus in culture; conditions: Enterovirus B, HeLa
[30] = tested on: Human betaherpesvirus 5; assay: microbe, parasite or virus in culture; conditions: Human betaherpesvirus 5, AD169, HFF
[31] = in vitro; conditions: human, HeLa cells

With `CCCCCCCCCCCCCCCCOCCCOP(=O)(O)COCCn1cnc2c(N)ncnc21` the EC50 [1] was 0.015 nM.

Work on `Nc1ncnc2c1ncn2CCOCP(=O)(O)OCCCCCCCCCCO` yielded an EC50 [2] of 114 µM and an EC50 [3] of 64.3 µM.

`Nc1ncnc2c1ncn2CCOCP(=O)(O)OCCCCCCCCC(O)CO` (centres undefined) gave a CC50 [4] of 9.4 µM, an EC50 [5] of over 9 µM and an EC50 [6] of over 9 µM.

`Nc1ncnc2c1ncn2CCOCP(=O)(OCCCCCCCCCCO)OCCCCCCCCCCO` showed an EC50 [2] of over 34 µM, an EC50 [3] of over 34 µM and an EC50 [7] of over 34 µM. The EC50 [8] was over 34 µM, the EC50 [9] was 99 µM and the EC50 [10] was over 34 µM. It also gave an EC50 [11] of over 34 µM, an EC50 [12] of over 34 µM and an EC50 [13] of over 34 µM. For the same compound, the EC50 [14] was over 34 µM.

With `Nc1ncnc2c1ncn2CCOCP(=O)(OCCCCCCCCC(O)CO)OCCCCCCCCC(O)CO` (centres undefined) the EC50 [2] was 99 µM, the EC50 [3] was 60.7 µM and the EC50 [15] was over 324 µM.

With `Nc1ncnc2c1ncn2CCOCP(=O)(O)OCCOCCCCCCCCCCO` the EC50 [16] was 122 µM, the EC50 [17] was 122 µM and the EC50 [2] was 26 µM. For the same compound, the EC50 [3] was 18.4 µM, the EC50 [18] was 106 µM and the EC50 [19] was 95 µM. The EC50 [20] was over 42 µM, the EC50 [15] was over 42 µM and the EC50 [21] was over 42 µM.

`Nc1ncnc2c1ncn2CCOCP(=O)(O)OCCOCCCCCCCCC(O)CO` (centres undefined) showed an EC50 [2] of 61.4 µM and an EC50 [3] of at least 72.7 µM.

In the case of `Nc1ncnc2c1ncn2CCOCP(=O)(OCCOCCCCCCCCCCO)OCCOCCCCCCCCCCO`, the CC50 [22] is reported as 62.5 µM, the CC50 [4] is reported as over 148 µM and the CC50 [23] is reported as 148 µM. The CC50 [24] was 13.5 µM, the EC50 [25] was over 29.7 µM and the EC50 [16] was over 29.7 µM. The EC50 [17] was over 29.7 µM, the EC50 [2] was over 29.7 µM and the EC50 [3] was over 29.7 µM. For the same compound, the EC50 [7] was over 29.7 µM, the EC50 [8] was over 29.7 µM and the EC50 [5] was over 29.7 µM. For the same compound, the EC50 [26] was over 29.7 µM, the EC50 [18] was over 29.7 µM and the EC50 [19] was over 29.7 µM. For the same compound, the EC50 [27] was over 29.7 µM, the EC50 [28] was over 29.7 µM and the EC50 [9] was over 29.7 µM. For the same compound, the EC50 [29] was over 29.7 µM, the EC50 [10] was over 29.7 µM and the EC50 [11] was over 29.7 µM. It also gave an EC50 [12] of over 29.7 µM, an EC50 [13] of over 29.7 µM and an EC50 [14] of over 29.7 µM. It also gave an EC50 [6] of over 29.7 µM, an EC50 [20] of over 5.9 µM and an EC50 [15] of over 5.9 µM. The EC50 [21] was over 5.9 µM.

In the case of `Nc1ncnc2c1ncn2CCOCP(=O)(OCCOCCCCCCCCC(O)CO)OCCOCCCCCCCCC(O)CO` (centres undefined), the EC50 [7] is reported as over 28.3 µM.

For `Nc1ncnc2c1ncn2CCOCP(=O)(O)OCCOCCOCCOCCOCCOCCO`, the EC50 [3] was 40.9 µM.

`CCOCCOCCOCCOCCOCCOCCOP(=O)(O)COCCn1cnc2c(N)ncnc21` showed a CC50 [22] of 146 µM, an EC50 [2] of 74.3 µM and an EC50 [3] of 69 µM.

Compound `Cc1oc(=O)oc1COP(=O)(O)COCCn1cnc2c(N)ncnc21` has a CC50 [22] of 117 µM, a CC50 [24] of 88 µM and an EC50 [25] of 51.9 µM. The EC50 [16] was 51.9 µM, the EC50 [17] was 98.6 µM and the EC50 [2] was 1.92 µM. It also gave an EC50 [3] of 7.6 µM, an EC50 [18] of 10.6 µM and an EC50 [19] of 9.3 µM.

Work on `Nc1ccn(C[C@@H](CO)OCP(=O)(O)OCCOCCOCCOCCOCCOCCO)c(=O)n1` yielded an EC50 [25] of 16.5 µM, an EC50 [16] of 12.9 µM and an EC50 [17] of 7.4 µM. The EC50 [2] was 1.91 µM, the EC50 [3] was 0.6 µM and the EC50 [7] was 0.8 µM. For the same compound, the EC50 [8] was 0.7 µM, the EC50 [5] was 14.5 µM and the EC50 [26] was 107 µM.

With `CCOCCOCCOCCOCCOCCOCCOP(=O)(O)CO[C@H](CO)Cn1ccc(N)nc1=O` the EC50 [16] was 3.5 µM, the EC50 [17] was 1.4 µM and the EC50 [7] was 0.95 µM. The EC50 [5] was 2.8 µM and the EC50 [26] was 15.7 µM.

In the case of `CCCCCCCCCCCCCCOCCCOP(=O)(O)CO[C@H](CO)Cn1ccc(N)nc1=O`, the EC50 [30] is reported as 0.002 µM.

Compound `Nc1nc2c(ncn2COCCO)c(=O)[nH]1` [ACYCLOVIR] has a CC50 [22] of at least 1420 µM and an EC50 [3] of 69.3 µM.

Compound `Nc1ncnc2c1ncn2CCOCP(=O)(O)O` [ADEFOVIR] has a CC50 [23] of over 250 µM, a CC50 [24] of 164 µM and an EC50 [25] of 42.5 µM. The EC50 [16] was 41.4 µM, the EC50 [17] was 24.9 µM and the EC50 [2] was 6.7 µM. The EC50 [3] was 5 µM, the EC50 [7] was 118 µM and the EC50 [8] was 115 µM. The EC50 [18] was 10.4 µM, the EC50 [19] was 8.6 µM and the EC50 [1] was 1100 nM.

In the case of `CCCCCCCCCCCCCCCCOCCCOP(=O)(O)CO[C@H](CO)Cn1ccc(N)nc1=O` [BRINCIDOFOVIR], the EC50 [30] is reported as 0.0009 µM.

For `O=c1[nH]c(=O)n([C@H]2C[C@H](O)[C@@H](CO)O2)cc1/C=C/Br` [BRIVUDINE], the CC50 [22] was 470 µM, the EC50 [16] was 274 µM and the EC50 [17] was 45.7 µM. For the same compound, the EC50 [2] was 0.013 µM and the EC50 [3] was at least 105 µM.

Work on `Nc1ccn(C[C@@H](CO)OCP(=O)(O)O)c(=O)n1` [CIDOFOVIR] yielded a CC50 [22] of 234 µM, an EC50 [25] of 1.6 µM and an EC50 [17] of 1.43 µM. The EC50 [2] was 0.29 µM, the EC50 [3] was 0.1 µM and the EC50 [7] was 0.92 µM. It also gave an EC50 [8] of 0.94 µM, an EC50 [26] of 7 µM and an EC50 [30] of 1.2 µM.

Work on `Nc1nc(O)c2ncn(COC(CO)CO)c2n1` [GANCICLOVIR] yielded a CC50 [22] of 435 µM, a CC50 [4] of over 394 µM and an EC50 [17] of 0.027 µM. For the same compound, the EC50 [5] was 8.1 µM and the EC50 [26] was over 250 µM.

Work on `CCOC(=O)C1=C[C@@H](OC(CC)CC)[C@H](NC(C)=O)[C@@H](N)C1` [OSELTAMIVIR] yielded an EC50 [20] of 12 µM and an EC50 [21] of 23.5 µM.

`NC(=O)c1ncn([C@@H]2O[C@H](CO)[C@@H](O)[C@H]2O)n1` [RIBAVIRIN] showed a CC50 at 72 h [31] of over 250 µM, an EC50 [9] of 3 µM and an EC50 [10] of over 250 µM. It also gave an EC50 [12] of at least 174 µM, an EC50 [13] of over 250 µM and an EC50 [20] of 9.8 µM.
